According to patent US20140121278A1, “ANTI-TUMOR AGENT OTX-008 TARGETS HUMAN GALECTIN-1” (REGENTS OF THE UNIVERSITY OF MINNESOTA, priority 2012, published 2014):
Read-outs that look alike come from different tables or passages of the source.

Key:
Jurkat E6.1 cells = experiment: Agglutination assay, gal-1 induced; type: cell-based; settings: Homo sapiens, 20 μM OTX-008, 1 μM gal-1, 22° C., read-out: inhibition of cell agglutination
Description: FIG. 7 depicts Jurkat E6.1 cells agglutination as induced by addition of 1 μM gal-1 and incubated at 22° C. on plastic, round bottom chamber slides (Nunc, Naperville, Ill., USA), in medium alone or in the presence of 20 μM OTX-008 (“0118”).
Agglutination Assay. Jurkat E6.1 cells (2×10^6/200 μL RPMI 1640 medium) agglutination was induced by 1 μM gal-1 and were incubated on plastic round bottom chamber slides (Nunc, Naperville, Ill., USA) in medium alone or with 20 μM OTX-008 at 22° C. Subsequently the cells were analyzed for agglutination with an Axiovert 10 inverted phase microscope equipped with a digital camera system (Zeiss, Germany), and digitally analyzed and differentially quantified by morphometric analysis, as described earlier (Dings et al., 2008, Cancer Lett; 265(2):270-280; and Dings et al., 2010, Bioconjugate Chem; 21(1):20-27).

human cancer cell lines = experiment: Cell viability assay (MTT); type: cell-based; settings: 72 h drug exposure, 48 h wash-out
Source text: FIGS. 8A-8C illustrate the concentration of OTX-008 (“0118”) required for inhibiting cell viability is proportional to Gal-1 expression. FIG. 8A illustrates the anti-viability effects (expressed as % change in cell numbers over time) of OTX-008 using the MTT assay in human cancer cell lines. FIG. 8B illustrates cancer cells that are sensitive to OTX-008 expressed […] galectin-1 protein expression as determined using Western Blot analysis. FIG. 8C illustrates that concentration of OTX-008, as established by plotting the IC50 in cancer cells, is proportional to their relative LGALS1 mRNA expression as assessed by qRT-PCR.
Cell lines. HEP2, SQ20B, HT29, DU145, and SKHEP1 cells were obtained from the ATCC (Rockville, Md., USA). COL0205-S cells were obtained from the National Cancer Institute collection. […]
Cell viability assay. Cell viability (i.e. cell proliferation and/or cytotoxicity) was determined using the MTT assay (3-[4,5-dimethylthiazol-2-yl]-2,5-diphenyltetrazolium bromide; Sigma, Saint-Quentin Fallavier, France). […] After incubation, the supernatant was discarded, insoluble formazan precipitates were dissolved in 0.1 mL of DMSO and the absorbance was measured at 560 nm by use of a microplate reader (Thermo, France). […] IC50 was determined as half the maximal inhibitory drug concentration for each cell line.

[1] = target: T1, gal-1 binding to cell surface glycans on splenocytes (CD4+ and CD8+ leukocytes, CD31+ endothelial cells) (Homo sapiens, UniProt P09382); experiment: Flow cytometry: FITC-gal-1 binding to cell surface glycans on splenocytes; type: cell-based, gal-1 null mice; settings: for inhibition at 20 µM: 20 μM OTX-008, 0.1 μM gal-1; for inhibition at 100 µM: 100 μM OTX-008
T1 construct: made in house; host or cells: E. coli BL21 (DE3) (the only gal-1 preparation described)
Description: FIGS. 6A and 6B depict the results of flow cytometry used to assess the effects of OTX-008 (“0118”) on FITC-gal-1 binding to splenocytes (CD4+ and CD8+ leukocytes and CD31+ endothelial cells). FIG. 6A illustrates the binding of FITC-gal-1 (0.1 μM or 0.2 μM) to these cells as a function of OTX-008 concentration. FIG. 6B illustrates the binding to CD4+ and CD8+ leukocytes and CD31+ endothelial cells derived from male or female gal-1−/− null mice. FITC-Galectin-1 preparation. Gal-1 was conjugated with fluorescein isothiocyanate (FITC) using a FITC:protein molar ratio of 10:1. Gal-1 (2 mg/ml) was dissolved in […] of 20 mM potassium phosphate buffer, pH 7.4, followed by addition of approximately 50 μL FITC (10 mg/ml) that had been dissolved in 0.1 mM sodium bicarbonate. The resulting lower pH (approximately pH 8) ensured selective labeling at the N-terminal amine group of the protein (Hungerford et al., 2007, Photochem Photobiol Sci; 6(2):152-158; and Hermanson, 2008, Bioconjugate Techniques, 2nd ed.; Academic Press: Burlington, Mass. Part 1, 1202 pp). This solution was then mixed thoroughly and incubated at room temperature (22° C.) for 18 hours in the dark. During the course of the reaction, the mixture was gently vortexed 3 or 4 times. The resulting FITC-labeled protein was separated from unbound dye by filtration using an Amicon Ultra cellulose filter (Millipore, 10 kDa cut-off). […] Flow Cytometry. Male and female gal-1 null mice (Jackson Laboratory) were provided water and standard chow ad libitum and were maintained on a 12-hour light/dark cycle prior to experiments that were approved by the University of Minnesota Research Animal Resources Ethical Committee. For FACS experiments, spleens from these mice (6-10 weeks old) were harvested and non-enzymatically disrupted by shear force to yield single-cell suspensions (Dings et al., 2011, Clin Cancer Res; 17(10):3134-3145). Cell suspensions were prepared in Hanks's balanced solution. Red blood cells were lysed in ACK (Lonza Walkersville) for 5 minutes on ice and suspensions were filtered through nylon mesh. Spleen cells were then washed and incubated with monoclonal antibodies as indicated for 40 minutes on ice. After an additional washing step, various concentrations of gal-1 (with or without OTX-008) were added and incubated for 30 minutes on ice. Prior to FACS analysis, cell suspensions were washed once more and analyzed by multi-parameter flow cytometry on a LSR II flow cytometer (BD Biosciences) using Flowjo software (Tree Star, Inc.) (Dings et al., 2011, Clin Cancer Res; 17(10):3134-3145).

human galectin-1 (gal-1) = target: T2, human galectin-1 (gal-1) (Homo sapiens, UniProt P09382); experiment: 1H-15N HSQC NMR binding of OTX-008 to 15N-labeled gal-1; settings: total gal-1 monomer 60 μM, pH 7.0, 30° C., HSQC intensity changes averaged over all resonances; read-out: Kd, estimate from mid-point of saturable binding curve (free OTX-008 at 50% intensity change)
T2 construct: made in house; host or cells: E. coli BL21 (DE3)
Description: Galectin-1 preparation. […] Typically, 44 milligrams of purified protein were obtained from 1 liter of cell culture. The purity of the final sample was quantified by using the Biorad protein assay and was checked for purity by using SDS PAGE. Functional activity of the purified protein was assessed by a T-cell death assay (Nesmelova et al., 2008, Biomol NAR Assignments; 2(2):203-205).
Heteronuclear NMR Spectroscopy. […]
NMR experiments were carried out at 30° C. on a Varian Unity Inova 600-MHz spectrometer equipped with an H/C/N triple-resonance probe and x/y/z triple-axis pulse field gradient unit. […] Raw data were converted and processed by using NMRPipe (Delaglio et al., 1995, J Biomol NMR; 6(3):277-293) and were analyzed by using NMRview (Johnson, 2004, Methods Mol Biol; 278:313-352).
Although an accurate equilibrium ligand dissociation constant, Kd cannot always be determined from data such as these, a plot of OTX-008-induced intensity changes averaged over all resonances vs. the concentration of OTX-008 does yield a saturable binding curve (inset of FIG. 2). […]

[2] = Phase I clinical trial with terminal cancer patients; type: in vivo, human; settings: preliminary, daily subcutaneous injection, 1 mg/Kg
Source text: In an embodiment, OTX-008 is a therapeutic agent for use against cancer. As a therapeutic agent, calixarene OTX-008 is a significant improvement over both Anginex and 6DBF7, as well as over any carbohydrate-based compound, for multiple reasons. OTX-008 (937 Da) approaches the generally accepted definition of a “small molecule” (i.e. <500 Da). OTX-008 should have better in vivo exposure, because it is non-peptidic and non-carbohydrate, and therefore is non-hydrolyzable. Moreover, because of its aryl-crown structure, OTX-008 should be chemically stable and less likely to be metabolized in vivo than any peptide or carbohydrate-based compound. […] In an embodiment, OTX-008 is a promising anti-tumor agent that targets galectin-1 as a first-in-class therapeutic agent.

[3] = read-out: inhibition of gal-1 binding to CD4+ (or CD8+) cells
[4] = read-out: inhibition of gal-1 binding to CD31+ cells

T1 sequence (P09382 whole entry): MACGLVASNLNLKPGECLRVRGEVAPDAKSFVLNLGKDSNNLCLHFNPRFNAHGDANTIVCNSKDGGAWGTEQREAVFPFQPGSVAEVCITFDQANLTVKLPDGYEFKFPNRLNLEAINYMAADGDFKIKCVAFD
T2 sequence (P09382 whole entry): as above

CN(C)CCNC(=O)COc1c2cccc1Cc1cccc(c1OCC(=O)NCCN(C)C)Cc1cccc(c1OCC(=O)NCCN(C)C)Cc1cccc(c1OCC(=O)NCCN(C)C)C2 [OTX-008]
inhibition at 20 µM (Jurkat E6.1 cells): ~80% | inhibition of cell viability on several cell types in culture (human cancer cell lines): dose-dependent | inhibition at 20 µM [1, 3]: ~80% | inhibition at 20 µM [1, 4]: ~50% | inhibition at 100 µM [1, 3]: 100% | inhibition at 100 µM [1, 4]: ~70% | Kd (human galectin-1 (gal-1)): ~30 µM | half-life ([2]; human, in vivo, sc): ~48 h | disease state [2]: apparent stabilization of disease state | toxicity [2]: absence of toxicity
